The record followed here is PMC5524190 (Biochemistry, 2016).

In the test the target is BaIMPDHΔL. The class given is biochemical, Bacillus anthracis. The note with it: read-out: k−7/k7, equilibrium dissociation constant of NAD+ substrate inhibition.

For the compound `NC(=O)c1ccc[n+]([C@@H]2O[C@H](COP(=O)([O-])OP(=O)(O)OC[C@H]3O[C@@H](n4cnc5c(N)ncnc54)[C@H](O)[C@@H]3O)[C@@H](O)[C@H]2O)c1` [NAD^+], the Kd came out at 5.5 mM.
